From ChEMBL document CHEMBL3580620, “Anti-inflammatory and antitumor phenylpropanoid sucrosides from the seeds of Raphanus sativus” (Bioorg Med Chem Lett, 2014)
Values after ≈ are worked out from the molar mass of the structure shown.

Assays:
BV-2 = experiment: Inhibition of LPS-induced nitric oxide production in mouse BV2 cells treated for 30 mins prior to LPS stimulation for 24 hrs by Griess assay; format: functional, cell-based
[1] = Cytotoxicity against mouse BV2 cells assessed as inhibition of cell viability up to 50 uM by MTT assay; format: cell-based; conditions: bv-2
A549 = experiment: Cytotoxicity against human A549 cells assessed as cell growth inhibition after 48 hrs by SRB assay; format: functional, cell-based; conditions: A549, 48 h
SK-OV-3 = experiment: Cytotoxicity against human SKOV3 cells assessed as cell growth inhibition after 48 hrs by SRB assay; format: functional, cell-based; conditions: SK-OV-3, 48 h
SK-MEL-2 = experiment: Cytotoxicity against human SK-MEL-2 cells assessed as cell growth inhibition after 48 hrs by SRB assay; format: functional, cell-based; conditions: SK-MEL-2, 48 h
HCT-15 = experiment: Cytotoxicity against human HCT15 cells assessed as cell growth inhibition after 48 hrs by SRB assay; format: functional, cell-based; conditions: HCT-15, 48 h
[2] = Antioxidant activity assessed as DPPH radical scavenging activity after 10 mins by spectrophotomteric analysis; format: physicochemical
[3] = Cytotoxicity against mouse BV2 cells assessed as inhibition of cell viability by MTT assay; format: cell-based, BV-2; conditions: read-out: INH
RAW264.7 = experiment: Inhibition of LPS-induced nitric oxide production in mouse RAW264.7 cells at 100 uM; format: functional

IC50 (BV-2)	IC50 [2]	Structure (SMILES)	Activity [1]	IC50 (A549)	IC50 (SK-OV-3)	IC50 (SK-MEL-2)	IC50 (HCT-15)	cytotoxicity [3]	inhibition at 100 µM (RAW264.7)
34.8 µM	23.05 mg/L (≈ 24.8 µM)	COc1cc(/C=C/C(=O)O[C@H]2[C@H](OC(=O)/C=C/c3cc(OC)c(O)c(OC)c3)[C@@H](CO)O[C@@]2(CO)O[C@H]2O[C@H](COC(=O)/C=C/c3cc(OC)c(O)c(OC)c3)[C@@H](O)[C@H](O)[C@H]2O)ccc1O	Non-toxic	26.9 µM	23.8 µM	16.7 µM	18.9 µM		
21.6 µM	44.59 mg/L (≈ 46.4 µM)	COc1cc(/C=C/C(=O)OC[C@H]2O[C@@](CO)(O[C@H]3O[C@H](COC(=O)/C=C/c4cc(OC)c(O)c(OC)c4)[C@@H](O)[C@H](O)[C@H]3O)[C@@H](OC(=O)/C=C/c3cc(OC)c(O)c(OC)c3)[C@@H]2O)cc(OC)c1O	Non-toxic	20.8 µM	6.71 µM	9.5 µM	12.4 µM		
48.9 µM	27.1 mg/L (≈ 28.2 µM)	COc1cc(/C=C/C(=O)OC[C@H]2O[C@H](O[C@]3(CO)O[C@H](CO)[C@@H](OC(=O)/C=C/c4cc(OC)c(O)c(OC)c4)[C@@H]3OC(=O)/C=C/c3cc(OC)c(O)c(OC)c3)[C@H](O)[C@@H](O)[C@@H]2O)cc(OC)c1O	Non-toxic	25.9 µM	19.2 µM	18.6 µM	14.1 µM		
37.1 µM	29.63 mg/L (≈ 39.3 µM)	COc1cc(/C=C/C(=O)OC[C@H]2O[C@H](O[C@]3(CO)O[C@H](CO)[C@@H](O)[C@@H]3OC(=O)/C=C/c3cc(OC)c(O)c(OC)c3)[C@H](O)[C@@H](O)[C@@H]2O)cc(OC)c1O	Non-toxic	21.1 µM	16.7 µM	14.2 µM	17.2 µM		
27 µM	54.98 mg/L (≈ 71.5 µM)	COc1cc(/C=C/C(=O)OC[C@H]2O[C@H](O[C@]3(CO)O[C@H](CO)[C@@H](O)[C@@H]3OC(=O)/C=C/c3cc(OC)c(OC)c(OC)c3)[C@H](O)[C@@H](O)[C@@H]2O)cc(OC)c1O	Non-toxic	26 µM	24.6 µM	21.6 µM	18.3 µM		
45.5 µM	35.33 mg/L (≈ 50.9 µM)	COc1cc(/C=C/C(=O)OC[C@H]2O[C@H](O[C@]3(CO)O[C@H](CO)[C@@H](O)[C@@H]3OC(=O)/C=C/c3ccc(O)c(OC)c3)[C@H](O)[C@@H](O)[C@@H]2O)ccc1O	Non-toxic	> 30 µM	20 µM	27.9 µM	17.8 µM		
37.4 µM	78.2 mg/L (≈ 143 µM)	COc1cc(/C=C/C(=O)O[C@H]2[C@H](O)[C@@H](CO)O[C@@]2(CO)O[C@H]2O[C@H](CO)[C@@H](O)[C@H](O)[C@H]2O)cc(OC)c1O		23.9 µM	20.5 µM	23.9 µM	27 µM	15%	
		COc1cc(/C=C/CO[C@@H]2O[C@H](CO)[C@@H](O)[C@H](O)[C@H]2O)ccc1O							50%
		OC[C@H]1O[C@@H](OC/C=C/c2ccc(O)cc2)[C@H](O)[C@@H](O)[C@@H]1O							50%
	7.63 mg/L (≈ 43.3 µM)	O=C1O[C@H]([C@@H](O)CO)C(O)=C1O [ASCORBIC ACID]							
		COc1cccc2c1C(=O)c1c(O)c3c(c(O)c1C2=O)C[C@@](O)(C(=O)CO)C[C@@H]3O[C@H]1C[C@H](N)[C@H](O)[C@H](C)O1 [DOXORUBICIN]			0.012 µM	0.001 µM			
> 200 µM	Not Active	OC[C@H]1O[C@@](CO)(O[C@H]2O[C@H](CO)[C@@H](O)[C@H](O)[C@H]2O)[C@@H](O)[C@@H]1O [SUCROSE]	Non-toxic	> 30 µM	> 30 µM	> 30 µM	> 30 µM		
